Measured values taken from patent US9382258B2, “Agents for treating pain and uses thereof” (AbbVie Inc., priority 2012, dated 2016).

Target: T1, human Cav2.2 (Homo sapiens, UniProt Q00975)
T1 construct: cells endogenously expressing human Cav2.2; endogenous in cells; host or cells: IMR32 cells
Assay: Calcium flux (FLIPR, Calcium 4 dye) in IMR32 cells endogenously expressing human Cav2.2
Format: cell-based
Conditions: 60 minute pre-incubation, 2 μM nifedipine to block L-type channels, depolarized with 80 mM KCl, 5 mM CaCl2, average of n≥2 runs unless marked *
Description: Compounds were tested for effect on calcium flux in cells endogenously expressing human Cav2.2. Specifically, IMR32 cells endogenously expressing human Cav2.2 were assayed for Ca^2+ influx using a no-wash calcium indicator dye (Calcium 4 dye: Molecular Probes) and FLIPR technology (Lubin, M L; et al. Assay and Drug Development Technologies, 2006, 4(6), 689-694). The IMR32 cells were maintained in MEM media containing 10% (v/v) FBS, 1% (v/v) antibiotic/antimitotic, 1% (v/v) sodium pyruvate and 1% (v/v) MEM NEAA. Following dissociation in 0.05% (v/v) trypsin/EDTA, cells were seeded into black 1×96-well plates (Corning Cellbind) at a density of 1−1.2×10^5 cells/well and incubated in the maintenance media above for 48 hours at 37° C. Immediately prior to performing the assay the media was removed and cells were loaded for 1.5 hours with 1× Calcium 4 dye prepared in HBSS (137 mM NaCl, 5.4 mM KCl, 0.25 mM Na2HPO4, 0.44 mM KH2PO4, 1.3 mM CaCl2, 1 mM MgSO4, 4.2 mM NaHCO3) containing HEPES pH 7.4 at room temperature. After dye loading and a subsequent 60 minute pre-incubation with compounds (full log dilutions from 10 μM to 0.1 nM) in the presence of 1.3 mM CaCl2 and 2 μM nifedipine to block endogenous L-type channels, the external Ca^2+ concentration was increased to 5 mM CaCl2 and the cells concomitantly depolarized with 80 mM KCl to assay channel activity.
To determine the IC50 values, the percent inhibition of the compound at each concentration was determined relative to the activity in the absence of inhibitor, and data was fitted using non-linear regression sigmoidal dose response curve analysis with GraphPad Prism®. Unless otherwise indicated (*), the reported values are average values from at least two runs (i.e., n≧2).

T1 sequence (Q00975 whole entry): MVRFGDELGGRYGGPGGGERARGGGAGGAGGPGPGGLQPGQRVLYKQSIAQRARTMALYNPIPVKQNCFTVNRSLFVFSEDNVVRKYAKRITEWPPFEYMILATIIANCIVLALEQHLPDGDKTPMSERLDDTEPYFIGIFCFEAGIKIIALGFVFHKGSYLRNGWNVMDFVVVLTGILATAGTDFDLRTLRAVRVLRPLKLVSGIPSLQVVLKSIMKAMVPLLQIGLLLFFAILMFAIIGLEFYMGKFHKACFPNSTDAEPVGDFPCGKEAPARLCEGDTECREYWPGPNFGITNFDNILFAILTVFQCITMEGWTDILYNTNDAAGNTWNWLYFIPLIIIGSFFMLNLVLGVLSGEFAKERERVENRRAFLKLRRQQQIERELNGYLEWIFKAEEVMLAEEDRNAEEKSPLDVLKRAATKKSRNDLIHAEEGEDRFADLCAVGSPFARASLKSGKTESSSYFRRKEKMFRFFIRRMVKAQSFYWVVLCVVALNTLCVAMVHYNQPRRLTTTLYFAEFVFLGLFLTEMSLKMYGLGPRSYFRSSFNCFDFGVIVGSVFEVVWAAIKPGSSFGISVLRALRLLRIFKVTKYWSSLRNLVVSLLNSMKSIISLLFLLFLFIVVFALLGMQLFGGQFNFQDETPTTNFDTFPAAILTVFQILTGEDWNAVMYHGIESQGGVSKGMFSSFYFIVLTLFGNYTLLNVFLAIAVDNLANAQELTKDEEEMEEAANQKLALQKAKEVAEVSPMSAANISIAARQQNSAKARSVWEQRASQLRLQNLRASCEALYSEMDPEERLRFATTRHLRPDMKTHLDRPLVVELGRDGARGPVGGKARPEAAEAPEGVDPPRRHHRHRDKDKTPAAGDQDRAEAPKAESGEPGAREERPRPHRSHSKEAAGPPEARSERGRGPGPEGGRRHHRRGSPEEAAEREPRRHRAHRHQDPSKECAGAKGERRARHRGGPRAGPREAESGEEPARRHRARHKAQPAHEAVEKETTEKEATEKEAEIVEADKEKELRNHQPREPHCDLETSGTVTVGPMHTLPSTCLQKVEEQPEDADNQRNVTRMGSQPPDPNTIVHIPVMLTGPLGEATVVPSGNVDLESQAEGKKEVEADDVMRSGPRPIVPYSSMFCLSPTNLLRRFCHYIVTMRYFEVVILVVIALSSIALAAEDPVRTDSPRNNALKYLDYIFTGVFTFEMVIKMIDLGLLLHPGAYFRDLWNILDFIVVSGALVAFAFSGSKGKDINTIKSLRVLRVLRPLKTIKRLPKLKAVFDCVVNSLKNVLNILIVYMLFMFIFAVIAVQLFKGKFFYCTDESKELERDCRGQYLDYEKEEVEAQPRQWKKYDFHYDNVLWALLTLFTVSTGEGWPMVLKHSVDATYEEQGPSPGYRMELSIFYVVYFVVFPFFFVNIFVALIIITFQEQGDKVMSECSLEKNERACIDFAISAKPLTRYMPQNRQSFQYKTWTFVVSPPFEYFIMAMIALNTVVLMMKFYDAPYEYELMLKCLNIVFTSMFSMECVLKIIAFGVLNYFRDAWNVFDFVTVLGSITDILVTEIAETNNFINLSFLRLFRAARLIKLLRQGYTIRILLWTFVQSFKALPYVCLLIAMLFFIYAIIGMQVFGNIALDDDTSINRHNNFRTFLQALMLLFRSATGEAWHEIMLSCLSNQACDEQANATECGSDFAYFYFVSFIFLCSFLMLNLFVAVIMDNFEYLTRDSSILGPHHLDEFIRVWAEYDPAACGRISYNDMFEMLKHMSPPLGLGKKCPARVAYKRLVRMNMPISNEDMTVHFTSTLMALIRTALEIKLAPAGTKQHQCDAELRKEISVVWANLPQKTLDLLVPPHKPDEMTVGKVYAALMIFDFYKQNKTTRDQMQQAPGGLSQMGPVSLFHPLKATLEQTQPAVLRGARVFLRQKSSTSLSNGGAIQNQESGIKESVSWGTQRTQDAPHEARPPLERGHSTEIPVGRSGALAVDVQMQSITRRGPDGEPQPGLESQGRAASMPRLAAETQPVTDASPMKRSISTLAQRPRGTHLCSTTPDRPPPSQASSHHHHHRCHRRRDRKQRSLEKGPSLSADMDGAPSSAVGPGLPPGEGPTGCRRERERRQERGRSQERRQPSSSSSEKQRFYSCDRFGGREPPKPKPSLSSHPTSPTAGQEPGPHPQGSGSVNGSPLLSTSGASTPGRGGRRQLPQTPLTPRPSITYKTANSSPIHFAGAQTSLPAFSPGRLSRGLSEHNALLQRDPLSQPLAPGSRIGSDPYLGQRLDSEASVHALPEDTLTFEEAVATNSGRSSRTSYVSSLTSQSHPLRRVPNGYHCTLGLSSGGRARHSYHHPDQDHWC
T1 sequence (P54284 whole entry partner): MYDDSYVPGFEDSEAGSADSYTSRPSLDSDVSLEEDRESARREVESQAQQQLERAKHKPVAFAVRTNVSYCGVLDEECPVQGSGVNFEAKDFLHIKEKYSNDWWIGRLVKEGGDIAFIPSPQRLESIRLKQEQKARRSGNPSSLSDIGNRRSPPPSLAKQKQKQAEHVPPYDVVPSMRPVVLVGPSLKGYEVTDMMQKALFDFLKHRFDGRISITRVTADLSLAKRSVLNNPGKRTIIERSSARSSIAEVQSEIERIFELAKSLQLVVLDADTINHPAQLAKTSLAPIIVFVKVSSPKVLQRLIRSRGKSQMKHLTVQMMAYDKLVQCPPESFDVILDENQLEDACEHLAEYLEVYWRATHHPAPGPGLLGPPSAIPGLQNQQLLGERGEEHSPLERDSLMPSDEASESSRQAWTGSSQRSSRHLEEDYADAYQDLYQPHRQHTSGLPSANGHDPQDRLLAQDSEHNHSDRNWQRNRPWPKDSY
T1 sequence (P54289 25-956 partner limits assumed): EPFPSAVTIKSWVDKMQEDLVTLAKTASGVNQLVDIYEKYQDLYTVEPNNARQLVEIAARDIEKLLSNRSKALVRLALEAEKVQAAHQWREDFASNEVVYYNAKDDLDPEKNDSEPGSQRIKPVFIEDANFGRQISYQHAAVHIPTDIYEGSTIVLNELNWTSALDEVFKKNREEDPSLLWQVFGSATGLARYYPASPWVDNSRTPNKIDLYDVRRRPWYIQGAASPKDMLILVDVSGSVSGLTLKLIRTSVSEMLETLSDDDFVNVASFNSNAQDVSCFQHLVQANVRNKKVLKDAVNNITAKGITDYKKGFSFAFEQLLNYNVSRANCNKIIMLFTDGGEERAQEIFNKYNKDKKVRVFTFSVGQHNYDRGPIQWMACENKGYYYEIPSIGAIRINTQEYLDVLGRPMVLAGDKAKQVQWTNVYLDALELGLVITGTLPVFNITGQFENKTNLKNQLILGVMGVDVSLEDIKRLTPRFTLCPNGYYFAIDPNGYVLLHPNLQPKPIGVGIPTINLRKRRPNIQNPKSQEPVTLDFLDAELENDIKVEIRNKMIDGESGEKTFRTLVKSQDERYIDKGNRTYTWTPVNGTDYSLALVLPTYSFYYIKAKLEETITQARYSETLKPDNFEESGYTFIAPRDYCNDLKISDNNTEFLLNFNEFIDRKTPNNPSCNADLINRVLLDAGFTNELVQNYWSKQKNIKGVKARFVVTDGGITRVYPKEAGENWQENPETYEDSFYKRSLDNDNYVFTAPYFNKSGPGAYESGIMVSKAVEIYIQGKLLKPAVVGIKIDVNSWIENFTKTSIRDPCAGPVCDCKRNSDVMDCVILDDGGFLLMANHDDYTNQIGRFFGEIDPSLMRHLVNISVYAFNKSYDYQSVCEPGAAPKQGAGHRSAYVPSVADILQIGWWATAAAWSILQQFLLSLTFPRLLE
T1 sequence (P54289 957-1103 partner limits assumed): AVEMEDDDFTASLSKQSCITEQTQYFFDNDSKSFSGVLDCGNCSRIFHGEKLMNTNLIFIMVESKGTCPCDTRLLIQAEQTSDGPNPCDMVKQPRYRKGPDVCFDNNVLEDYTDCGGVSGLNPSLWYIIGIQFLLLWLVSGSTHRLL

In order of falling IC50:
1. O=C(c1cccc(C(F)(F)F)c1)N1CCC(=O)N2C[C@@H](Oc3cnc(C4CC4)cn3)C[C@@H]2C1 [Example 63, (8S,9aR)-8-[(5-cyclopropylpyrazin-2-yl)oxy]-2-[3-(trifluoromethyl)benzoyl]octahydro-5H-pyrrolo[1,2-a][1,4]diazepin-5-one]  22500 nM
2. O=C(c1cccc(C(F)(F)F)c1)N1CCC(=O)N2C[C@@H](Oc3cnc(C4CC4)cn3)C[C@H]2C1 [Example 60, (8S,9aS)-8-[(5-cyclopropylpyrazin-2-yl)oxy]-2-[3-(trifluoromethyl)benzoyl]octahydro-5H-pyrrolo[1,2-a][1,4]diazepin-5-one]  18800 nM
3. O=C(c1cccc(C(F)(F)F)c1)N1CCC(=O)N2C[C@H](Oc3cnc(C4CC4)cn3)C[C@@H]2C1 [Example 57, (8R,9aR)-8-[(5-cyclopropylpyrazin-2-yl)oxy]-2-[3-(trifluoromethyl)benzoyl]octahydro-5H-pyrrolo[1,2-a][1,4]diazepin-5-one]  11200 nM
4. O=C1CCN(c2cnc(C3CC3)cn2)C[C@@H]2C[C@@H](Oc3ccc(C(F)(F)F)cn3)CN12 [Example 51, (8R,9aS)-2-(5-cyclopropylpyrazin-2-yl)-8-{[5-(trifluoromethyl)pyridin-2-yl]oxy}octahydro-5H-pyrrolo[1,2-a][1,4]diazepin-5-one]  7350 nM
5. O=C1CCN(S(=O)(=O)c2cccc(C(F)(F)F)c2)C[C@@H]2C[C@@H](Oc3ccc(C(F)(F)F)nc3)CN12 [Example 53, (8R,9aS)-2-{[3-(trifluoromethyl)phenyl]sulfonyl}-8-{[6-(trifluoromethyl)pyridin-3-yl]oxy}octahydro-5H-pyrrolo[1,2-a][1,4]diazepin-5-one]  4020 nM
6. O=C1CCN(S(=O)(=O)c2ccc(C(F)(F)F)cc2)C[C@H]2C[C@@H](Oc3cnc(C4CC4)cn3)CN12 [Example 58, (8R,9aR)-8-[(5-cyclopropylpyrazin-2-yl)oxy]-2-{[4-(trifluoromethyl)phenyl]sulfonyl}octahydro-5H-pyrrolo[1,2-a][1,4]diazepin-5-one]  3750 nM
7. O=C1CCN(c2ccc(C(F)(F)F)cn2)C[C@H]2C[C@@H](Oc3cnc(C4CC4)cn3)CN12 [Example 55, (8R,9aR)-8-[(5-cyclopropylpyrazin-2-yl)oxy]-2-[5-(trifluoromethyl)pyridin-2-yl]octahydro-5H-pyrrolo[1,2-a][1,4]diazepin-5-one]  3430 nM
8. O=C1CCN(Cc2ccc(OC(F)(F)F)cc2)C[C@H]2C[C@H](Oc3cnc(C4CC4)cn3)CN12 [Example 62, (8S,9aR)-8-[(5-cyclopropylpyrazin-2-yl)oxy]-2-[4-(trifluoromethoxy)benzyl]octahydro-5H-pyrrolo[1,2-a][1,4]diazepin-5-one]  3230 nM
9. O=C1CCN(Cc2ccc(OC(F)(F)F)cc2)C[C@@H]2C[C@H](Oc3cnc(C4CC4)cn3)CN12 [Example 59, (8S,9aS)-8-[(5-cyclopropylpyrazin-2-yl)oxy]-2-[4-(trifluoromethoxy)benzyl]octahydro-5H-pyrrolo[1,2-a][1,4]diazepin-5-one]  3170 nM
10. O=C1CCN(Cc2ccc(OC(F)(F)F)cc2)C[C@H]2C[C@@H](Oc3cnc(C4CC4)cn3)CN12 [Example 56, (8R,9aR)-8-[(5-cyclopropylpyrazin-2-yl)oxy]-2-[4-(trifluoromethoxy)benzyl]octahydro-5H-pyrrolo[1,2-a][1,4]diazepin-5-one]  2500 nM
11. O=C1CCN(S(=O)(=O)c2ccc(C(F)(F)F)cc2)C[C@H]2C[C@H](Oc3cnc(C4CC4)cn3)CN12 [Example 64, (8S,9aR)-8-[(5-cyclopropylpyrazin-2-yl)oxy]-2-{[4-(trifluoromethyl)phenyl]sulfonyl}octahydro-5H-pyrrolo[1,2-a][1,4]diazepin-5-one]  2200 nM
12. O=C(c1cccc(C(F)(F)F)c1)N1CCCN2C[C@H](Oc3cnc(C4CC4)cn3)C[C@H]2C1 [Example 7, [(8R,9aS)-8-[(5-cyclopropylpyrazin-2-yl)oxy]hexahydro-1H-pyrrolo[1,2-a][1,4]diazepin-2(3H)-yl][3-(trifluoromethyl)phenyl]methanone]  1660 nM
13. O=C1CCN(S(=O)(=O)c2ccc(C(F)(F)F)cc2)C[C@@H]2C[C@@H](Oc3ccc(C(F)(F)F)nc3)CN12 [Example 54, (8R,9aS)-2-{[4-(trifluoromethyl)phenyl]sulfonyl}-8-{[6-(trifluoromethyl)pyridin-3-yl]oxy}octahydro-5H-pyrrolo[1,2-a][1,4]diazepin-5-one]  1290 nM
14. O=C1CCN(S(=O)(=O)c2ccc(C(F)(F)F)cc2)C[C@@H]2C[C@@H](Oc3ccc(C(F)(F)F)cn3)CN12 [Example 52, (8R,9aS)-2-{[4-(trifluoromethyl)phenyl]sulfonyl}-8-{[5-(trifluoromethyl)pyridin-2-yl]oxy}octahydro-5H-pyrrolo[1,2-a][1,4]diazepin-5-one]  1260 nM
15. FC(F)(F)c1ccc(N2CCCN3C[C@H](Oc4cnc(C5CC5)cn4)C[C@H]3C2)nc1 [Example 19, (8R,9aS)-8-[(5-cyclopropylpyrazin-2-yl)oxy]-2-[5-(trifluoromethyl)pyridin-2-yl]octahydro-1H-pyrrolo[1,2-a][1,4]diazepane]  1210 nM
16. O=C1CCN(S(=O)(=O)c2ccc(C(F)(F)F)cc2)C[C@@H]2C[C@H](Oc3cnc(C4CC4)cn3)CN12 [Example 61, (8S,9aS)-8-[(5-cyclopropylpyrazin-2-yl)oxy]-2-{[4-(trifluoromethyl)phenyl]sulfonyl}octahydro-5H-pyrrolo[1,2-a][1,4]diazepin-5-one]  1200 nM
17. O=C(c1ccc(C(F)(F)F)cc1)N1CCCN2C[C@H](Oc3cnc(C4CC4)cn3)C[C@H]2C1 [Example 13, [(8R,9aS)-8-[(5-cyclopropylpyrazin-2-yl)oxy]hexahydro-1H-pyrrolo[1,2-a][1,4]diazepin-2(3H)-yl][4-(trifluoromethyl)phenyl]methanone]  880 nM
18. (8R,9aS)-8-[(5-cyclopropylpyrazin-2-yl)oxy]-2-{[3-(trifluoromethyl)phenyl]sulfonyl}octahydro-1H-pyrrolo[1,2-a][1,4]diazepane [Example 1]  320 nM

Tested on: Sprague Dawley rats (CCI neuropathic pain)
Assay: Chronic constriction injury (CCI) model of neuropathic pain, tactile allodynia by von Frey filaments
Format: in vivo, rat
Conditions: male Sprague Dawley rats, 10 mg/kg orally in 10% dimethyl sulfoxide/polyethylene glycol, mechanical allodynia 60 minutes after administration, calculated from log g paw withdrawal threshold
Description: Test compounds can be evaluated for analgesic effect in an in vivo model of neuropathic pain. Specifically, animals were prepared for testing, by use of a surgical procedure that induces neuropathic pain in one paw. IACUC guidelines for rodent survival surgery were followed. All surgical procedures were conducted on a clean, uncluttered surgical station. The area was wiped with a 70% ethanol solution before and after use. All instruments were sterilized by either autoclave or chemical sterilant (such as 2% glutaraldehyde>10 hours). Surgeons wore sterile gloves (for the initial procedure), clean lab coat or scrubs, hairnet or cap, and a half-mask respirator (when not working under a hood). Surgeons thoroughly washed their hands prior to donning sterile gloves. Gloves were disinfected in-between animals by cleansing with povidone iodine, chlorhexidine or 70% alcohol for at least 30 seconds. If multiple surgeries were performed, the instruments were cleaned and sterilized between procedures with hot glass beads (>10 seconds). To prevent thermal or chemical burns, the instruments were cooled by rinsing in sterile saline before use.
Male, Sprague Dawley® rats, 175-200 g were used for surgeries. To minimize post-operative dehydration/maintain blood volume during the surgery, warmed sterile saline or Lactate Ringers solution at 10-15 mL/kg was administered subcutaneously immediately before or after surgery. This facilitates better renal function and presumably anesthesia product excretion post surgery. For all surgical procedures, anesthesia was induced with 4-5% isoflurane. Anesthesia was maintained during surgery with 1-3% isoflurane. Following induction, the surgical site was carefully shaved and the exposed area was aseptically prepared with povidone-iodine scrub solution and 70% ethanol 2-3 times.
Chronic constriction injury (CCI), a model of neuropathic pain, was produced by following the method of Bennett and Xie (Bennett, G., et al. Pain, 1988, 33, 87-107). After site sterilization and anesthetic procedures outline above were completed, a 1.5 cm incision is made at the mid-thigh level to expose the biceps femoris and gluteous superficialis (right side), which were then separated by blunt dissection. The common sciatic nerve was exposed, isolated, and loosely ligated by four 5-0 chromic gut ligatures with <1 mm spacing between each. The surgical site was closed in layers—muscle is closed with 6.0 absorbable sutures, and the skin closed with wound clips. Animals were allowed to recover on a warming plate and were returned to their home cages when fully ambulatory. Animals were not be used for testing until at least 10 days following surgery.
To measure mechanical sensitivity, tactile allodynia was measured using calibrated von Frey filaments (Stoelting, Wood Dale, Ill.) as described by Chaplan et al. (Chaplan S., et al. J of Neuroscience Methods 1994, 53, 55-63). Filament strengths used were: 0.4, 0.6, 1.0, 2, 4, 6, 8, and 15 g. Rats were placed into inverted individual plastic containers (20×12.5×20 cm) on top of a suspended wire mesh grid, and acclimated to the test chambers for at least 20 minutes. Filaments were applied perpendicular to the mid-plantar paw surface with enough force to cause slight buckling and held in place for 6-8 seconds. Positive responses included an abrupt withdrawal of the paw from the stimulus or flinching behavior immediately following removal of the stimulus. The maximum force applied was 15 g. The 50% paw withdrawal threshold (PWT) was calculated in grams (g) using the up-down method of Dixon (Dixon W. Ann Rev Pharmacol Toxicol 1980, 20, 441-462). […] All compounds were orally administered at 10 mg/kg in 10% dimethyl sulfoxide/polyethylene glycol at a volume of 2.0 mL/kg, and mechanical allodynia was determined 60 minutes following compound administration
The data are reported as log g values and the percentage of maximum possible effect (% MPE) is calculated using log g values with the Formula: […]

In order of falling “% MPE” value:
1. O=C(c1cccc(C(F)(F)F)c1)N1CCCN2C[C@H](Oc3cnc(C4CC4)cn3)C[C@H]2C1 [Example 7, [(8R,9aS)-8-[(5-cyclopropylpyrazin-2-yl)oxy]hexahydro-1H-pyrrolo[1,2-a][1,4]diazepin-2(3H)-yl][3-(trifluoromethyl)phenyl]methanone]  44%
2. O=C(c1ccc(C(F)(F)F)cc1)N1CCCN2C[C@H](Oc3cnc(C4CC4)cn3)C[C@H]2C1 [Example 13, [(8R,9aS)-8-[(5-cyclopropylpyrazin-2-yl)oxy]hexahydro-1H-pyrrolo[1,2-a][1,4]diazepin-2(3H)-yl][4-(trifluoromethyl)phenyl]methanone]  40%
3. FC(F)(F)c1ccc(N2CCCN3C[C@H](Oc4cnc(C5CC5)cn4)C[C@H]3C2)nc1 [Example 19, (8R,9aS)-8-[(5-cyclopropylpyrazin-2-yl)oxy]-2-[5-(trifluoromethyl)pyridin-2-yl]octahydro-1H-pyrrolo[1,2-a][1,4]diazepane]  36%
